Here are results for four compounds from paper PMC6371959 (Antiviral Research, 2018).

pEC50: −log10 of the molar value. Read-outs that look alike come from different tables or passages of the source.

In data set [1] the test system is EBOV minigenome (WT NP). Description: microbe, parasite or virus in culture. Format: cell-based, Ebola virus (EBOV), Makona strain. The following applies: Zaire ebolavirus, read-out: EC50 (reduction in luciferase, EBOV minigenome).
The next data set relates to Huh7-Lunet-T7 cells. The following applies: human.
Data set [2] concerns T7FFLuc control (T7 RNA polymerase driven firefly luciferase). Description: cells. The class given is cell-based. The following applies: BSR-T7, read-out: EC50 (T7FFLuc control).
The test system is the same in data set [3]. Description: cells. The class given is cell-based. The following applies: read-out: EC50 (T7FFLuc control).
Data set [4] is described as follows: in vitro. The following applies: hamster, CC50 (reduction in cell viability, MTT).
A short description of data set [5]: in vitro. The following applies: human, CC50 (reduction in cell viability, MTT).
Data set [6] has as its system Bunyamwera virus (BUNV) minigenome. The experiment in a line: microbe, parasite or virus in culture. The class given is cell-based. The following applies: BSR-T7, read-out: EC50 (BUNV minigenome control).
Data set [7] relates to EBOV minigenome (WT NP). Description: microbe, parasite or virus in culture. The following applies: Zaire ebolavirus; for pEC50: BSR-T7, read-out: EC50 (reduction in luciferase, EBOV minigenome).
Data set [8] concerns EBOV minigenome (WT NP). Description: in vitro. The following applies: hamster.
A further data set has as its system influenza NP. The following applies: cited from earlier work.

For the compound `O=C(c1cccc(/C=C2\SC(=O)N(Cc3ccccc3)C2=O)c1)N1CCN(c2ccccn2)CC1` [MCCB4], the pEC50 in the data set with EBOV minigenome (WT NP) [1] was 5.82; in data set [2], under 4.00; in [3], 4.51; in data set [6] it was under 4.00; in the data set on EBOV minigenome (WT NP) [7] it was 5.32. Besides, the CC50 in the data set on Huh7-Lunet-T7 cells was 43.2 µM; in “in vitro [4]”, over 100 µM; in “in vitro [5]”, 48.8 µM. Further, the concentration for an effect of 90% (EC90) with EBOV minigenome (WT NP) [7] (BSR-T7, read-out: EC90 (EBOV minigenome)) came out at 49 µM. In addition, the inhibition at 4.8 µM in the data set on EBOV minigenome (WT NP) [7] (BSR-T7, read-out: inhibition of luciferase (time course)) came to 50%.
Consider `O=C(c1cccc(/C=C2\SC(=O)N(Cc3cccc(F)c3)C2=O)c1)N1CCN(c2ccccn2)CC1` [MCCB4-8], for which the negative logarithm of the EC50 (pEC50) was under 4.00 in data set [2] and 4.95 in the data set on EBOV minigenome (WT NP) [7]. Moreover, it took 46.5 µM to reach half-maximal cytotoxicity in the data set “in vitro [4]” (CC50). The selectivity ratio in the data set on EBOV minigenome (WT NP) [8] was found to be 4.
For `O=C(c1cccc(/C=C2\SC(=O)N(Cc3ccc(F)cc3)C2=O)c1)N1CCN(c2ccccn2)CC1` [MCCB4-12] the same measures were 4.31, 5.06, 64.8 µM and 6.5.
Turning to `Cc1onc(-c2ccccc2)c1C(=O)N1CCN(c2ccc([N+](=O)[O-])cc2Cl)CC1` [Nucleozin], the “EC50 (influenza, NP aggregation)” value in the data set on influenza NP was “nM range”.

The term pEC50 denotes −log10 of the EC50, conventionally taken in molar units. As usually defined, the CC50 is the concentration giving 50% cytotoxicity. Read a low CC50 as greater toxicity to the cells. As a reminder, the EC90 is the point of the concentration-response curve where the effect stands at 90%. For orientation: inhibition means the share of the control response that was lost under treatment.
